US4705845A, “Process for sulphation and phosphorylation of proteins and peptides” (Rockefeller University, priority 1986, dated 1987)

Key:
[1] = Hypoglycemic potency (United States Pharmacopeia method); format: in vivo; conditions: relative to unmodified insulin; USP Vol. 18 method
Method: Hypoglycemic potency of the modified insulin was measured as described in "The United States Pharmacopeia", Mark Publishing Co., Vol. 18, pp. 883-884 (1964). Bioactivity was 62% as compared to unmodified insulin.

[2] = Aggregation tendency assessed by turbidity of the solution (absorbance difference at 400 nm); format: physicochemical; conditions: 0 to 0.1 A non-aggregated, above 0.3 aggregated
Method: The tendency of modified insulin to aggregate was assessed by measuring the turbidity of the solution. This method is based on the work of Leach and Scheraga (S. J. Leach and H. A. Scheraga (1964) J. Amer. Chem. Soc. 82, 4790-4792) who stated that absorbancy observed in insulin solutions between 350 and 600 nm is due to light scattering of aggregated particles. Briefly, 10 mg of sample was dissolved in 2 ml of isotonic phosphate buffered saline (PBS) and the solution was passed 50 times through a 3 cc plastic syringe (B-D Plastipak, Luer Lok Type) equipped with a 26G 3/8" hypodermic needle. After deaeration under vacuo for 60 min. 1 ml of this solution was diluted with 1 ml of PBS, and the turbidity was measured on a Hewlett Packard spectrophotometer type HP 8590, utilizing as a blank a non-aggregated sample diluted by 1 volume of 8M guanidine hydrochloride. Aggregation was measured by the difference in absorbance determined at 400 nm for the two samples. Non-aggregated samples gave absorbance values of 0 to 0.1 Absorbance Unit(A), Values above 0.3 were considered to be aggregated. Utilizing this assay the turbidity of this modified insulin dissolved in PBS was 0.08 A. In contrast unmodified porcine sodium insulin dissolved in distilled water has an absorbance of 0.51 A when treated according to the above procedure.

| Substance | Bioactivity as compared to unmodified insulin (hypoglycemic potency) [1] [%] | Turbidity (difference in absorbance at 400 nm) ([2]; dissolved in PBS, passed 50 times through a 26G needle) [A] | Turbidity (difference in absorbance at 400 nm) ([2]; dissolved in distilled water, treated according to the same procedure) [A] |
| --- | --- | --- | --- |
| Example 1: porcine sodium insulin sulphated with sulfuric acid and N,N' dicyclohexyl carbodiimide in DMF; mixture of sulphated isomers | 62 | 0.08 |  |
| unmodified porcine sodium insulin: unmodified porcine sodium insulin, starting material and comparator [reference compound] |  |  | 0.51 |
| Example 4: porcine sodium insulin phosphorylated with concentrated phosphoric acid and DCC in DMF | 85 |  |  |
